The text below walks through data of patent publication US10287292B2, “CXCR7 antagonists” (CHEMOCENTRYX, INC., priority 2012, dated 2019).

The target of experiment [1] is T1, CXCR7 receptor (Homo sapiens (Human), UniProt P25106). The experiment is described as follows: Buffer Binding Analysis: displacement of 125I-labeled SDF-1 from CXCR7. The settings on record: 125I SDF-1 displacement, buffer binding medium, MCF-7 and/or MDA-MB-435S CXCR7 transfected cells, 3 hr at 4° C.; read-out: Avg Bind IC50. The protocol:
(§1) The compounds were combined with cells expressing the CXCR7 receptor (e.g., MCF cells or cells transfected to express CXCR7) in the presence of the 125 I-labeled SDF-1 chemokine as detailed in Determination of IC50 values. Reagents and Cells (see below). The ability of the compounds to displace the labeled chemokine from the CXCR7 receptor sites at multiple concentrations was then determined with the screening process.
Compounds that were deemed effective modulators were able to displace at least 50% of the SDF-1 from the CXCR7 receptor at concentrations at or below 15 micromolar (μM) but >2500 nM (+); and more preferably at concentrations from >500 nM to ≤2500 nM (++). At present, especially preferred compounds can displace at least 50% of the SDF-1 from the CXCR7 receptor at concentrations at or below 500 nM (+++). Exemplary compounds that met these criteria are reproduced in Table 1 and the Examples above. In Table 1, Avg Bind IC50 refers to the Buffer Binding Analysis described below, while Avg Ser IC50 refers to the Serum Binding Analysis described below. All compounds were prepared as described in the Examples above, or by related methods substituting readily available starting materials.
(§2) ^125I-labeled SDF-1 was purchased from Perkin-Elmer Life Sciences, Inc. (Boston, Mass.). The MCF-7 (adenocarcinoma; mammary gland) cell line was obtained from the American Type Culture Collection (ATCC, Manassas, Va.) or and was cultured in DMEM (Mediatech, Herndon, Va.) supplemented with 10% fetal bovine serum (FBS) (HyClone Logan, Utah) and bovine insulin (0.01 mg/mL) (Sigma. St. Louis, Mo.) at 37° C. in a humidified incubator at a 5% CO2/air mixture. CXCR7 transfected MDA-MB-435S were produced as described below. MDA-MB-435S human breast cancer line, was purchased from ATCC, and cultured in DMEM/10% FBS medium. The complete coding sequence of the gene encoding CXCR7 (a.k.a. CCXCKR2, hRDC1), was isolated from MCF-7 cells using μMACs mRNA isolation kit (Miltenyi Biotec, Auburn, Calif.). DNA contamination was removed by DNase digestion via RNeasy columns (Qiagen, Inc., Valencia, Calif.) and cDNA was generated using GeneAmp RNA PCR Core Kit (Applied Biosystems, Foster City. Calif.). PCR of cDNA samples was performed using Taq PCR Master Mix kit (Qiagen. Inc.) and hRDC1 primers harboring 5′ and 3′ Not I sites (hRDC1F 5′ […]-3, hRDC1R 5′-[…]-3′) Not I digested PCR product was ligated into Not I digested pcDNA3.1(+)(Invitrogen, Carlsbad, Calif.) and screened for orientation and sequence confirmed. Plasmid DNA was then isolated from overnight bacterial cultures by Maxiprep (Qiagen, Inc.). Plasmid DNA (10 μg) was added to MDA-MB-435s cells and cells were electroporated (0.22 kV, 960 uF) via Gene Pulser (Biorad laboratories, Hercules, Calif.). 48 hr post-electroporation, cells were transferred to selection medium (600 ug/ml G418).
(§3) Target compounds can be tested to determine their ability to bind with CXCR7 sites on MCF-7 and/or MDA-MB-435S CXCR7 transfected cells. Efficiency-maxim/zed radioligand binding using filtration protocols as described in Dairaghi D J, et al., HHV8-encoded vMIP-I selectively engages chemokine receptor CCR5. Agonist and antagonist profiles of viral chemokines., J. Biol. Chem. 1999 Jul. 30; 274(31): 21569-74 and Gosling J. et al., Cutting edge: identification of a novel chemokine receptor that binds dendritic cell-and T cell-active chemokines including ELC. SLC, and TECK., J. Immunol. 2000 Mar. 15; 164(6):2851-6 was used.
In these assays, MCF-7 and/or MDA-MB-435S cells are interrogated with the target compounds and the ability of these compounds to displace ^125I radiolabeled SDF-1 assessed using the protocol described in Dairaghi and Gosling. […]

In experiment [2] the target is T1, CXCR7 receptor. The experiment is described as follows: Serum Binding Analysis: displacement of 125I-labeled SDF-1 from CXCR7 in 100% human serum. The settings on record: 125I SDF-1 displacement in 100% human serum, MCF-7 and/or MDA-MB-435S CXCR7 transfected cells, 3 hrs at 4° C.; read-out: Avg Ser IC50. The protocol:
as §1
In Table 1, Avg Bind IC50 refers to the Buffer Binding Analysis described below, while Avg Ser IC50 refers to the Serum Binding Analysis described below. All compounds were prepared as described in the Examples above, or by related methods substituting readily available starting materials.
as §2
as §3, with “In order to more properly assess the binding efficacy of the compounds, radioligand binding assays were carried out in the presence of 100% human serum to more accurately reflect the in vivo environment. […] Target” for “Target”, “compounds were” for “compounds can be”, “Gosling J,” for “Gosling J.”, “dendritic cell- and” for “dendritic cell-and”, “including ELC,” for “including ELC.”, “and TECK,” for “and TECK.,”
In these assays, MCF-7 and/or MDA-MB-435S cells were interrogated with the target compounds and the ability of these compounds to displace 125 I radiolabeled SDF-1 was assessed using the protocol described in Dairaghi and Gosling. The target compounds were added to the plate to the indicated concentration followed by addition of cells and radiolabeled chemokine (125I SDF-1), both in the following medium (human AB serum with 10 mM HEPES added to stabilize at pH 7.4). All assays were then incubated for 3 hrs at 4° C. with gentle agitation.
For orientation: Loss of bound radioactivity is the signal in a displacement assay; it reports binding, not function.

T1 sequence (P25106 whole entry): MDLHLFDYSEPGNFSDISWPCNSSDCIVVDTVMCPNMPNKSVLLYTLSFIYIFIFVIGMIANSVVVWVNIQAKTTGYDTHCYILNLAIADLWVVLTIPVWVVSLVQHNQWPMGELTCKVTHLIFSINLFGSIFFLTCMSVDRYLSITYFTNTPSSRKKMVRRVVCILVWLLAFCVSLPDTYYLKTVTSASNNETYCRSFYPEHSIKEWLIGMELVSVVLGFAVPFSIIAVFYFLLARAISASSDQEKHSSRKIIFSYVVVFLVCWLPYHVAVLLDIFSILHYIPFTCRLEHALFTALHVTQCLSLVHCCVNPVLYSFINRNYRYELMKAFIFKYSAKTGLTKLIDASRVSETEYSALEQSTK

For `O=C(N[C@H]1CCN(c2nccn3cccc23)C1)c1ccn(-c2ccc(Cl)cn2)n1` [Compound 1.081], the IC50 in experiment [1] is at most 500 nM; in experiment [2] it was 500 to 2500 nM. Turning to `O=C(N[C@H]1CCN(c2nccn3ccnc23)C1)c1cnc(N2CCC(O)CC2)cn1` [Compound 1.075], the concentration for half-maximal inhibition (IC50) fell in the range of 500 to 2500 nM in experiment [1] and 2500 to 15000 nM in experiment [2]. As for `O=C(N[C@H]1CCN(c2nccn3ccnc23)C1)c1ccn(-c2ccc(Cl)cc2)n1` [Compound 1.102], the IC50 in experiment [1] and in experiment [2] was at most 500 nM in each case. Consider `O=C(N[C@H]1CCN(c2nccn3ccnc23)C1)c1ccn(-c2ccc(F)cc2)n1` [Compound 1.092], for which the IC50 in experiment [1] and in experiment [2] was at most 500 nM throughout. For `O=C(N[C@H]1CCN(c2nccn3cccc23)C1)c1ncc(-c2ccc(F)cc2)cn1` [Compound 1.076], the half-inhibitory concentration (IC50) in experiment [1] and in experiment [2] was at most 500 nM in each case.

Take `Cc1ccccc1-n1ccc(C(=O)N[C@H]2CCN(c3nccn4ccc(C)c34)C2)n1` [Compound 1.109]: the half-inhibitory concentration (IC50) in experiment [1] was at most 500 nM; in experiment [2] it was 500 to 2500 nM.

Consider `Cc1ccc2nc(C(=O)N[C@H]3CCN(c4nccn5cccc45)C3)ncc2c1` [Compound 1.085], for which the IC50 in experiment [1] and in experiment [2] was at most 500 nM throughout. Regarding `O=C(N[C@H]1CCN(c2nccn3cccc23)C1)c1noc(-c2ccccc2)n1` [Compound 1.120], the IC50 in experiment [1] and in experiment [2] was at most 500 nM in each case.

With `O=C(N[C@H]1CCN(c2nccn3cnnc23)C1)c1ncn(-c2ccc(F)cc2)n1` [Compound 1.089], the IC50 in experiment [1] and in experiment [2] was at most 500 nM each time.

As to `O=C(N[C@H]1CCN(c2nccn3cccc23)C1)c1nnc(-c2ccccc2)[nH]1` [Compound 1.083], the IC50 is at most 500 nM in experiment [1] and 500 to 2500 nM in experiment [2].

As for `O=C(N[C@H]1CCN(c2nccn3cccc23)C1)c1coc(-c2ccccc2)n1` [Compound 1.125], the IC50 in experiment [1] and in experiment [2] was at most 500 nM in each case. `Cc1ccn2ccnc(N3CC[C@H](NC(=O)c4ccn(-c5ccc(Cl)c(F)c5)n4)C3)c12` [Compound 1.100]: the IC50 in experiment [1] is at most 500 nM; in experiment [2] it was 2500 to 15000 nM. On to `Cc1ccccc1-n1ccc(C(=O)N[C@H]2CCN(c3nccn4cccc34)C2)n1` [Compound 1.123], for which the IC50 in experiment [1] and in experiment [2] was at most 500 nM in each case. For the molecule `O=C(N[C@H]1CCN(c2nccn3cccc23)C1)c1ncn(-c2ccc(Cl)cc2)n1` [Compound 1.119], the concentration for half-maximal inhibition (IC50) in experiment [1] was at most 500 nM; in experiment [2], 500 to 2500 nM. Consider `O=C(N[C@H]1CCN(c2nccn3cccc23)C1)c1ccn(-c2cccc(F)c2)n1` [Compound 1.113], for which the IC50 in experiment [1] and in experiment [2] was at most 500 nM each time. Turning to `Cc1ccn2ccnc(N3CC[C@H](NC(=O)c4ccn(-c5ccc(F)cc5)n4)C3)c12` [Compound 1.106], the concentration for half-maximal inhibition (IC50) in experiment [1] is at most 500 nM; in experiment [2], 500 to 2500 nM.

`O=C(N[C@H]1CCN(c2nccn3cnnc23)C1)c1ccn(C2CCOCC2)n1` [Compound 1.087]: the half-maximal inhibitory concentration (IC50) in experiment [1] is 2500 to 15000 nM; in experiment [2], 500 to 2500 nM. For `O=C(N[C@H]1CCN(c2nccn3cccc23)C1)c1ncc(-c2ccccc2)cn1` [Compound 1.093], the IC50 in experiment [1] and in experiment [2] was at most 500 nM each time. Regarding `O=C(N[C@H]1CCN(c2nccn3cccc23)C1)c1ccn(-c2ccc(Cl)c(F)c2)n1` [Compound 1.114], the concentration for half-maximal inhibition (IC50) in experiment [1] and in experiment [2] was at most 500 nM each time. In the case of `O=C(N[C@H]1CCN(c2nccn3cnnc23)C1)c1csc(-c2ccccc2)n1` [Compound 1.066], in experiment [2], the IC50 is at most 500 nM. On to `Cc1cn2cccc2c(N2CC[C@H](NC(=O)c3ccn(-c4ccc(F)cc4)n3)C2)n1` [Compound 1.041], for which the IC50 in experiment [2] is at most 500 nM. On to `Cc1cn2cccc2c(N2CC[C@H](NC(=O)c3ncn(-c4ccc(Cl)cc4)n3)C2)n1` [Compound 1.022], for which the half-inhibitory concentration (IC50) in experiment [2] is at most 500 nM.

Take `O=C(N[C@H]1CCN(c2nccn3cccc23)C1)c1cnc(C2CC2)cn1` [Compound 1.052]: the IC50 in experiment [2] is at most 500 nM. As for `Cc1cn2ccnc2c(N2CC[C@H](NC(=O)c3ncn(-c4ccccc4)n3)C2)n1` [Compound 1.032], the half-inhibitory concentration (IC50) in experiment [2] was at most 500 nM. Turning to `CCc1cnc(C(=O)N[C@H]2CCN(c3nccn4cccc34)C2)nc1` [Compound 1.065], in experiment [2], the IC50 was at most 500 nM.

As for `Cc1cn2cccc2c(N2CC[C@H](NC(=O)c3csc(-c4ccccc4)n3)C2)n1` [Compound 1.023], in experiment [2], the IC50 is at most 500 nM.

For `CCc1cn2cccc2c(N2CC[C@H](NC(=O)c3ncn(-c4ccc(F)cc4)n3)C2)n1` [Compound 1.013], the IC50 in experiment [2] was at most 500 nM. Consider `O=C(N[C@H]1CCN(c2nccn3nccc23)C1)c1ncn(-c2ccccc2)n1` [Compound 1.018], for which, in experiment [2], the half-inhibitory concentration (IC50) lay within 2500 to 15000 nM.

For the molecule `CS(=O)(=O)c1ccc(-n2cnc(C(=O)N[C@H]3CCN(c4nccn5ccnc45)C3)n2)cc1` [Compound 1.005], in experiment [2], the 50% inhibitory concentration (IC50) lay in the range of 2500 to 15000 nM. On to `CC(C)c1cn2cccc2c(N2CC[C@H](NC(=O)c3ncn(-c4ccccc4)n3)C2)n1` [Compound 1.008], for which, in experiment [2], the half-maximal inhibitory concentration (IC50) is 500 to 2500 nM. Regarding `O=C(N[C@H]1CCN(c2nccn3ncnc23)C1)c1ccn(-c2ccc(F)cc2)n1` [Compound 1.067], the IC50 in experiment [2] is at most 500 nM.

Take `O=C(NC1CN(c2nccn3cccc23)C[C@@H]1O)c1ccn(-c2ccc(F)cc2)n1` (stereo partly drawn) [Compound 1.062]: the half-inhibitory concentration (IC50) in experiment [2] is at most 500 nM.

On to `O=C(N[C@H]1CCN(c2nccn3cccc23)C1)c1ncn(-c2ccc(F)cc2)n1` [Compound 1.003], for which the IC50 in experiment [2] was at most 500 nM. For the molecule `O=C(N[C@H]1CCN(c2nccn3cnnc23)C1)c1cn(-c2ccccc2)cn1` [Compound 1.035], the IC50 in experiment [2] was at most 500 nM. Consider `Cc1cn2cccc2c(N2CC[C@H](NC(=O)c3ccn(-c4ccc(Cl)cc4)n3)C2)n1` [Compound 1.029], for which the IC50 in experiment [2] is at most 500 nM. For `Cc1ccccc1-n1ccc(C(=O)N[C@H]2CCN(c3nccn4ccnc34)C2)n1` [Compound 1.057], in experiment [2], the IC50 is at most 500 nM.

For `Cc1ccccc1-c1nc(C(=O)N[C@H]2CCN(c3nccn4ccnc34)C2)cs1` [Compound 1.045], the half-maximal inhibitory concentration (IC50) in experiment [2] is at most 500 nM.

As for `O=C(N[C@H]1CCN(c2nccn3ccnc23)C1)c1cn(-c2ccccc2)cn1` [Compound 1.036], the concentration for half-maximal inhibition (IC50) in experiment [2] was at most 500 nM.

By IC50 is commonly meant the concentration at which inhibition is half-maximal.
